The values below come from US8969248B2, “5-iodotriazole derivatives” (Bayer Intellectual Property GmbH, priority 2010, dated 2015).

SMILES strings stand for the structures.

Type in all cases: in vivo
One experiment deals with Puccinia recondita. Put plainly: Puccinia test (wheat)/protective. The settings on record: protective spray, 500 ppm, evaluation 7-9 days after inoculation.
For the next experiment, the system named is Sphaerotheca fuliginea. Put plainly: Sphaerotheca test (cucumber)/protective. The settings on record: protective spray, 500 ppm, evaluation 7 days after inoculation. On the procedure: [table] To produce an appropriate active ingredient formulation, 1 part by weight of active ingredient is mixed with the specified amounts of solvent and emulsifier, and the concentrate is diluted with water to the desired concentration. To test for protective activity, young cucumber plants are sprayed with the active ingredient formulation at the stated application rate. 1 day after the treatment, the plants are inoculated with a spore suspension of Sphaerotheca fuliginea. The plants are then placed in a greenhouse at 70% relative air humidity and a temperature of 23° C.

Experiment [1] concerns Blumeria graminis f. sp. hordei. Put plainly: Blumeria graminis test (barley)/protective. The settings on record: protective spray, 500 ppm, evaluation 7 days after inoculation. On the procedure:
[table] To produce an appropriate active ingredient formulation, 1 part by weight of active ingredient is mixed with the specified amounts of solvent and emulsifier, and the concentrate is diluted with water to the desired concentration. To test for protective activity, young plants are sprayed with the active ingredient formulation at the stated application rate. After the spray coating has dried on, the plants are dusted with spores of Blumeria graminis f. sp. hordei.

The subject of the next experiment is Fusarium graminearum. The settings on record: barley, protective spray, 500 ppm, evaluation 5 days after inoculation.
For the next experiment, the system named is Leptosphaeria nodorum. Description: Leptosphaeria nodorum test (wheat)/protective. The settings on record: protective spray, 500 ppm, evaluation 8 days after inoculation. On the procedure: [table] To produce an appropriate active ingredient formulation, 1 part by weight of active ingredient is mixed with the specified amounts of solvent and emulsifier, and the concentrate is diluted with water to the desired concentration. To test for protective activity, young plants are sprayed with the active ingredient formulation at the stated application rate. After the spray coating has dried on, the plants are sprayed with spores with a spore suspension of Leptosphaeria nodorum.

The next experiment concerns Pyrenophora teres. Description: Pyrenophora teres test (barley)/protective. The settings on record: protective spray, 500 ppm, evaluation 8 days after inoculation. On the procedure:
[table] To produce an appropriate active ingredient formulation, 1 part by weight of active ingredient is mixed with the specified amounts of solvent and emulsifier, and the concentrate is diluted with water to the desired concentration. To test for protective activity, young plants are sprayed with the active ingredient formulation at the stated application rate. After the spray coating has dried on, the plants are sprayed with a spore suspension of Pyrenophora teres.

The test system of another experiment is Septoria tritici. Description: Septoria tritici test (wheat)/protective. The settings on record: protective spray, 500 ppm, evaluation 21 days after inoculation.
The next experiment deals with Uromyces appendiculatus. Description: Uromyces test (bean)/protective. The settings on record: protective spray, 100 ppm, evaluation 10 days after inoculation. On the procedure: (§1) [table] To produce an appropriate active ingredient formulation, 1 part by weight of active ingredient is mixed with the specified amounts of solvent and emulsifier, and the concentrate is diluted with water to the desired concentration. To test for protective activity, young plants are sprayed with the active ingredient formulation at the stated application rate. […] The plants are then placed in a greenhouse at approx. 21° C. and a relative air humidity of approx. 90%.

A further experiment deals with Venturia inaequalis. Description: Venturia test (apple)/protective. The settings on record: protective spray, 100 ppm, evaluation 10 days after inoculation. On the procedure: as §1
A further experiment relates to Pyricularia oryzae. The settings on record: rice, protective spray, 250 ppm, evaluation 5 days after inoculation.
The subject of another experiment is Phakopsora pachyrhizi. Put plainly: Phakopsora test (soya beans)/protective. The settings on record: protective spray, 100 ppm, evaluation 1 days after inoculation (so in the source).
In another experiment the test system is Botrytis cinerea. Description: Botrytis test (bean)/protective. The settings on record: protective spray, 250 ppm, evaluation 2 days after inoculation. On the procedure:
[table] To produce an appropriate active ingredient formulation, 1 part by weight of active ingredient is mixed with the specified amounts of solvent and emulsifier, and the concentrate is diluted with water to the desired concentration. To test for protective activity, young plants are sprayed with the active ingredient formulation at the stated application rate. After the spray coating has dried on, 2 small pieces of agar colonized by Botrytis cinerea are placed onto each leaf.

In a further experiment the test system is Cochliobolus miyabeanus. Description: Cochliobolus test (rice)/protective. The settings on record: protective spray, 250 ppm, evaluation 4 days after inoculation.

Take `OC(Cn1ncnc1I)(c1ccc(Br)cc1)C1(Oc2ccc(F)cc2)CC1` (stereo not shown) [Compound 6]: the “Efficacy (%)” value in the experiment with Puccinia recondita and in the experiment with Sphaerotheca fuliginea was 100% in each case.

Consider `OC(Cc1ccccc1Cl)(Cn1ncnc1I)C1(F)CC1` (stereo not shown) [Compound 13], for which the “Efficacy (%)” value in [1] is 100%; in the experiment on Fusarium graminearum, 100%; in the experiment with Leptosphaeria nodorum, 86%; with Pyrenophora teres it was 100%; with Septoria tritici it was 100%; in the experiment on Sphaerotheca fuliginea, 100%. Besides, the “Efficacy (%)” value in the experiment with Uromyces appendiculatus is listed as 100%; with Venturia inaequalis, 99%.

Consider `OC(Cn1ncnc1I)(c1ccc(F)cc1F)C1(Oc2ccc(F)cc2)CC1` (stereo not shown) [Compound 10], for which the “Efficacy (%)” value in the experiment with Puccinia recondita came to 100%; in the experiment with Sphaerotheca fuliginea, 100%; with Uromyces appendiculatus, 100%; with Venturia inaequalis, 100%; in the experiment on Pyricularia oryzae it was 97%; in the experiment on Phakopsora pachyrhizi, 98%.

In the case of `CC1COC(Cn2ncnc2I)(c2ccc(Oc3ccc(Cl)cc3)cc2Cl)O1` (mixture of isomers) [Compound 8], the “Efficacy (%)” value in [1] turned out to be 100%; in the experiment on Leptosphaeria nodorum, 94%; with Puccinia recondita, 100%; in the experiment on Pyrenophora teres, 88%; in the experiment on Sphaerotheca fuliginea, 100%; in the experiment with Uromyces appendiculatus, 100%. For the same molecule, the “Efficacy (%)” value in the experiment with Venturia inaequalis worked out at 100%; with Phakopsora pachyrhizi, 98%.

Consider `OC(Cn1ncnc1I)(c1ccc(Br)cc1)C1(Oc2ccccc2)CC1` (stereo not shown) [Compound 9], for which the “Efficacy (%)” value in the experiment with Puccinia recondita, in the experiment with Sphaerotheca fuliginea, in the experiment with Uromyces appendiculatus and in the experiment on Venturia inaequalis was 100% each time.

Regarding `CC(C1CC1)C(O)(Cn1ncnc1I)c1ccc(Cl)cc1` (stereo not shown) [Compound 17], the “Efficacy (%)” value is 89% with Puccinia recondita and 95% with Sphaerotheca fuliginea.

For `Fc1cccc(C2(Cn3ncnc3I)OC2c2ccccc2Cl)c1` (stereo not shown) [Compound 16], the “Efficacy (%)” value with Puccinia recondita is 90%; with Sphaerotheca fuliginea, 100%.

In the case of `CC(C)(C)C(O)(CCc1ccc(Cl)cc1)Cn1ncnc1I` (stereo not shown) [Compound 2], the “Efficacy (%)” value in experiment [1] worked out at 100%; in the experiment on Botrytis cinerea, 90%; with Fusarium graminearum, 100%; in the experiment with Leptosphaeria nodorum, 100%; with Puccinia recondita, 100%; with Pyrenophora teres, 94%. Moreover, the “Efficacy (%)” value in the experiment with Sphaerotheca fuliginea, with Uromyces appendiculatus and in the experiment with Venturia inaequalis was 100% in each case.

In the case of `OC(Cn1ncnc1I)(c1ccc(F)cc1F)C1(Oc2ccccc2Cl)CC1` (stereo not shown) [Compound 11], the “Efficacy (%)” value in the experiment with Puccinia recondita is reported as 94%; in the experiment with Sphaerotheca fuliginea, 100%; with Pyricularia oryzae, 93%.

With `OC(Cn1ncnc1I)(c1ccc(Cl)cc1)C1(Oc2ccccc2F)CC1` (stereo not shown) [Compound 7], the “Efficacy (%)” value is listed as 100% in the experiment with Puccinia recondita; 100% in the experiment with Sphaerotheca fuliginea; 100% in the experiment with Uromyces appendiculatus; 100% in the experiment with Venturia inaequalis; 98% with Phakopsora pachyrhizi.

Turning to `CC(C)(C)C(O)(COc1ccc(Cl)cc1)Cn1ncnc1I` (stereo not shown) [Compound 18], the “Efficacy (%)” value was found to be 100% in experiment [1]; 100% in the experiment with Leptosphaeria nodorum; 100% in the experiment with Puccinia recondita; 93% with Pyrenophora teres; 100% with Septoria tritici; 100% in the experiment with Sphaerotheca fuliginea. For the same molecule, the “Efficacy (%)” value in the experiment with Uromyces appendiculatus and in the experiment on Venturia inaequalis was 100% throughout.

Take `Fc1ccc(C2(Cn3ncnc3I)OC2c2ccccc2Cl)cc1` (stereo not shown) [Compound 1]: the “Efficacy (%)” value is listed as 100% in [1]; 73% in the experiment with Botrytis cinerea; 75% in the experiment on Fusarium graminearum; 100% in the experiment on Leptosphaeria nodorum; 100% with Puccinia recondita; 78% in the experiment with Pyrenophora teres. Besides, the “Efficacy (%)” value in the experiment with Septoria tritici turned out to be 100%; with Sphaerotheca fuliginea, 100%; in the experiment with Uromyces appendiculatus, 97%; in the experiment on Venturia inaequalis, 97%.

Turning to `OC(Cc1ccc(F)cc1)(Cn1ncnc1I)C1(Cl)CC1` (stereo not shown) [Compound 4], the “Efficacy (%)” value in experiment [1] was 100%; in the experiment on Botrytis cinerea it was 89%; in the experiment on Fusarium graminearum, 100%; in the experiment on Leptosphaeria nodorum it was 93%; in the experiment with Puccinia recondita it was 100%; in the experiment on Pyrenophora teres it was 100%. Further, the “Efficacy (%)” value in the experiment with Septoria tritici is reported as 100%; with Sphaerotheca fuliginea, 100%; with Uromyces appendiculatus, 100%; in the experiment on Venturia inaequalis, 100%; with Pyricularia oryzae it was at least 80%. The same molecule registered an efficacy in the experiment with Cochliobolus miyabeanus of at least 80%.
